Earlier results, collected in publication PMC11966747, “Next Generation Risk Assessment of Acute Neurotoxicity from Organophosphate Exposures Using the In Vitro–In Silico Derived Dietary Comparator Ratio” (Environmental Science & Technology, 2025).
Read-outs that look alike come from different tables or passages of the source.

Experiments:
[1] = molecular target: erythrocyte AChE (Homo sapiens, UniProt P22303); settings: cited from earlier work; for reported or expected adverse health outcome: human, ref Table S2
[2] = QSAR-based prediction; ref Punt et al. 2022; Moerenhout et al. 2024; cited from earlier work
[3] = 1714 mg/kg BW (120 g) acute oral, 13 males and 2 females, ref Moon et al. 2015

erythrocyte AChE, sequence (P22303 32-617 isoform P22303-2 limits assumed): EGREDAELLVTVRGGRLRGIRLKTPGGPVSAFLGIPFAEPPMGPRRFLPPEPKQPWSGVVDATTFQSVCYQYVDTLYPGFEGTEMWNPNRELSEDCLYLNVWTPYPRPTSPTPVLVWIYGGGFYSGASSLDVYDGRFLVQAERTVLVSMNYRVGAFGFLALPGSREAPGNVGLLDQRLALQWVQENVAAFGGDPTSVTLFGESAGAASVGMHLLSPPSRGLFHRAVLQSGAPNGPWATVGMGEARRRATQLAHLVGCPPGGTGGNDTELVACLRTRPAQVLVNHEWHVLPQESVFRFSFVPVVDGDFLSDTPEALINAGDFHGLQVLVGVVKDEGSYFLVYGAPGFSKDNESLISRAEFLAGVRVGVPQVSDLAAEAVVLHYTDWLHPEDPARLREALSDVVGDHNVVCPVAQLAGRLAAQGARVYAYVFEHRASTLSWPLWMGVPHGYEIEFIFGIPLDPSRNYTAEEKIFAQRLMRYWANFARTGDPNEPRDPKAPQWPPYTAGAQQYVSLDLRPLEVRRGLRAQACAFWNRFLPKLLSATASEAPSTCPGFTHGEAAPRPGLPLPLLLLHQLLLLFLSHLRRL

COP(=S)(OC)Oc1ccc([N+](=O)[O-])c(C)c1 [fenitrothion]
Reported concomitant effects (signs and symptoms) ([1]; 357 mg/kg BW (25 g) acute oral, person twelve, ref Yoshida and Kuroki. 2010 (original data of Koyama et al. 2006)): Toxic symptoms occurred
Reported concomitant effects (signs and symptoms) ([1]; 357 mg/kg BW (25 g) acute oral, person, ref Martinez-Chuecos et al. 1992): Toxic symptoms occurred
Reported concomitant effects (signs and symptoms) ([1]; 429 mg/kg BW (30 g) acute oral, person, ref Yoshida et al. 1987): Toxic symptoms occurred
Reported concomitant effects (signs and symptoms) ([1]; 429 mg/kg BW (30.0 ± 19.7 g) acute oral, 4 males and 6 females, ref Inoue et al. 2008): Toxic symptoms occurred
Reported concomitant effects (signs and symptoms) ([1]; 500 mg/kg BW (35 g) acute oral, person fourteen, ref Yoshida and Kuroki. 2010 (original data of Koyama et al. 2006)): Toxic symptoms occurred
Reported concomitant effects (signs and symptoms) ([1]; 500 mg/kg BW (35 g) acute oral, person two, ref Yoshida and Kuroki. 2010 (original data of Koyama et al. 2006)): Toxic symptoms occurred
Reported concomitant effects (signs and symptoms) ([1]; 536 mg/kg BW (37.5 g) acute oral, person, ref Yoshida and Kuroki. 2010 (original data of Koyama et al. 2006)): Toxic symptoms occurred
Reported concomitant effects (signs and symptoms) ([1]; 571 mg/kg BW (40 g) acute oral, person, ref Park and Choi. 2017): Toxic symptoms occurred
Reported concomitant effects (signs and symptoms) ([1]; 714 mg/kg BW (50 g) acute oral, person eight, ref Yoshida and Kuroki. 2010 (original data of Koyama et al. 2006)): Toxic symptoms occurred
Reported concomitant effects (signs and symptoms) ([1]; 714 mg/kg BW (50 g) acute oral, person four, ref Yoshida and Kuroki. 2010 (original data of Koyama et al. 2006)): Toxic symptoms occurred
Reported concomitant effects (signs and symptoms) ([1]; 714 mg/kg BW (50 g) acute oral, person nine, ref Yoshida and Kuroki. 2010 (original data of Koyama et al. 2006)): Toxic symptoms occurred
Reported concomitant effects (signs and symptoms) ([1]; 714 mg/kg BW (50 g) acute oral, person one, ref Yoshida and Kuroki. 2010 (original data of Koyama et al. 2006)): Toxic symptoms occurred
Reported concomitant effects (signs and symptoms) ([1]; 714 mg/kg BW (50 g) acute oral, person ten, ref Yoshida and Kuroki. 2010 (original data of Koyama et al. 2006)): Toxic symptoms occurred
Reported concomitant effects (signs and symptoms) ([1]; 714 mg/kg BW (50 g) acute oral, person thirteen, ref Yoshida and Kuroki. 2010 (original data of Koyama et al. 2006)): Toxic symptoms occurred
Reported concomitant effects (signs and symptoms) [1, 3]: toxic symptoms occurred
Reported erythrocyte AChE activity/inhibition [1, 3]: Significantly decreased
Reported concomitant effects (signs and symptoms) ([1]; 1786 mg/kg BW (125.0 ± 35.4 g) acute oral, one male and one female, ref Inoue et al. 2008): Toxic symptoms occurred
reported or expected adverse health outcome ([1]; single oral 0.042 mg/kg BW, 0.042 mg/kg): negative
reported or expected adverse health outcome ([1]; single oral 0.042 mg/kg BW, listed as Fenitrothion, 0.042 mg/kg): No
reported or expected adverse health outcome ([1]; single oral 0.06 mg/kg BW, 0.06 mg/kg): negative
reported or expected adverse health outcome ([1]; single oral 0.06 mg/kg BW, listed as Fenitrothion, 0.06 mg/kg): No
reported or expected adverse health outcome ([1]; single oral 0.083 mg/kg BW, 0.083 mg/kg): negative
reported or expected adverse health outcome ([1]; single oral 0.083 mg/kg BW, listed as Fenitrothion, 0.083 mg/kg): No
reported or expected adverse health outcome ([1]; single oral 0.09 mg/kg BW, 0.09 mg/kg): negative
reported or expected adverse health outcome ([1]; single oral 0.09 mg/kg BW, listed as Fenitrothion, 0.09 mg/kg): No
reported or expected adverse health outcome ([1]; single oral 0.17 mg/kg BW, 0.17 mg/kg): negative
reported or expected adverse health outcome ([1]; single oral 0.17 mg/kg BW, listed as Fenitrothion, 0.17 mg/kg): No
reported or expected adverse health outcome ([1]; single oral 0.18 mg/kg BW, 0.18 mg/kg): negative
reported or expected adverse health outcome ([1]; single oral 0.18 mg/kg BW, listed as Fenitrothion, 0.18 mg/kg): No
reported or expected adverse health outcome ([1]; single oral 0.25 mg/kg BW, 0.25 mg/kg): negative
reported or expected adverse health outcome ([1]; single oral 0.25 mg/kg BW, listed as Fenitrothion, 0.25 mg/kg): No
reported or expected adverse health outcome ([1]; single oral 0.33 mg/kg BW, 0.33 mg/kg): negative
reported or expected adverse health outcome ([1]; single oral 0.33 mg/kg BW, listed as Fenitrothion, 0.33 mg/kg): No
reported or expected adverse health outcome ([1]; single oral 0.36 mg/kg BW, 0.36 mg/kg): negative
reported or expected adverse health outcome ([1]; single oral 0.36 mg/kg BW, listed as Fenitrothion, 0.36 mg/kg): No
reported or expected adverse health outcome ([1]; single oral 36 mg/kg BW, 36 mg/kg): positive
reported or expected adverse health outcome ([1]; single oral 36 mg/kg BW, listed as Fenitrothion, 36 mg/kg): Yes
reported or expected adverse health outcome ([1]; single oral 71 mg/kg BW, 71 mg/kg): positive
reported or expected adverse health outcome ([1]; single oral 71 mg/kg BW, listed as Fenitrothion, 71 mg/kg): Yes
reported or expected adverse health outcome ([1]; single oral 143 mg/kg BW, 143 mg/kg): positive
reported or expected adverse health outcome ([1]; single oral 143 mg/kg BW, listed as Fenitrothion, 143 mg/kg): Yes
reported or expected adverse health outcome ([1]; single oral 214 mg/kg BW, 214 mg/kg): positive
reported or expected adverse health outcome ([1]; single oral 214 mg/kg BW, listed as Fenitrothion, 214 mg/kg): Yes
reported or expected adverse health outcome ([1]; single oral 357 mg/kg BW, 357 mg/kg): positive
reported or expected adverse health outcome ([1]; single oral 357 mg/kg BW, listed as Fenitrothion, 357 mg/kg): Yes
reported or expected adverse health outcome ([1]; single oral 429 mg/kg BW, 429 mg/kg): positive
reported or expected adverse health outcome ([1]; single oral 429 mg/kg BW, listed as Fenitrothion, 429 mg/kg): Yes
reported or expected adverse health outcome ([1]; single oral 500 mg/kg BW, 500 mg/kg): positive
reported or expected adverse health outcome ([1]; single oral 500 mg/kg BW, listed as Fenitrothion, 500 mg/kg): Yes
reported or expected adverse health outcome ([1]; single oral 536 mg/kg BW, 536 mg/kg): positive
reported or expected adverse health outcome ([1]; single oral 536 mg/kg BW, listed as Fenitrothion, 536 mg/kg): Yes
reported or expected adverse health outcome ([1]; single oral 571 mg/kg BW, 571 mg/kg): positive
reported or expected adverse health outcome ([1]; single oral 571 mg/kg BW, listed as Fenitrothion, 571 mg/kg): Yes
reported or expected adverse health outcome ([1]; single oral 1714 mg/kg BW, 1714 mg/kg): positive
reported or expected adverse health outcome ([1]; single oral 1714 mg/kg BW, listed as Fenitrothion, 1714 mg/kg): Yes
reported or expected adverse health outcome ([1]; single oral 1786 mg/kg BW, 1786 mg/kg): positive
reported or expected adverse health outcome ([1]; single oral 1786 mg/kg BW, listed as Fenitrothion, 1786 mg/kg): Yes
Oral absorption rate constant [2]: 0.58 h⁻¹
